Reference: BindingDB's records for doi:10.1016/0024-3205(94)00413-m (Sanofi Recherche, 1995)
Several values for one entry are separate records, joined by “and”; a condition that tells them apart may be missing. Equal entries are not always repeated.

Key:
Substance-K receptor [1] = molecular target: T1, Substance-K receptor (Rattus norvegicus, UniProt P16610)
T1 sequence (P16610 whole entry): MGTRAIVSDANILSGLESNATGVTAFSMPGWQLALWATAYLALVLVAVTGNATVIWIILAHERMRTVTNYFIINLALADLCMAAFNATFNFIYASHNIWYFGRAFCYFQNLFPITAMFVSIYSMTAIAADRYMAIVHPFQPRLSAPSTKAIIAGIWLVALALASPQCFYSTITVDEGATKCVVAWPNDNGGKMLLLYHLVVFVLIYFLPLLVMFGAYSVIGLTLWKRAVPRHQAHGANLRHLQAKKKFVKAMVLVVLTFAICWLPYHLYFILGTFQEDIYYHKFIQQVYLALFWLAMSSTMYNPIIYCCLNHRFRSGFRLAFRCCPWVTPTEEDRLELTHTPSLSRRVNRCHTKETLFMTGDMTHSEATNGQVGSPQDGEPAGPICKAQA

Substance-P receptor = Substance-P receptor (Rattus norvegicus, UniProt P14600)
Substance-K receptor [2] = molecular target: T2, Substance-K receptor (Mesocricetus auratus, UniProt P51144)
T2 sequence (P51144 whole entry): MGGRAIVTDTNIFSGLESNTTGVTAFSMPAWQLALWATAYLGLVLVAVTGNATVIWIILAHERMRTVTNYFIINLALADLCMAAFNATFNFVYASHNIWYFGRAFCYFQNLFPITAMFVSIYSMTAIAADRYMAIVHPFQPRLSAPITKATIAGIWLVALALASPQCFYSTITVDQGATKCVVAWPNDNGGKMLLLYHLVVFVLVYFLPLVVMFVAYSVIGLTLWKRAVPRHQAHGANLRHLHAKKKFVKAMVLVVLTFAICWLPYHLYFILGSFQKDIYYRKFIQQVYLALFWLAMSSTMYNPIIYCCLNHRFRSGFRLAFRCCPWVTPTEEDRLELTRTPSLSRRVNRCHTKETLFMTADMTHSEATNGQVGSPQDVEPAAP

Substance-K receptor [3] = molecular target: T3, Substance-K receptor (Cavia porcellus, UniProt Q64077)
T3 sequence (Q64077 whole entry): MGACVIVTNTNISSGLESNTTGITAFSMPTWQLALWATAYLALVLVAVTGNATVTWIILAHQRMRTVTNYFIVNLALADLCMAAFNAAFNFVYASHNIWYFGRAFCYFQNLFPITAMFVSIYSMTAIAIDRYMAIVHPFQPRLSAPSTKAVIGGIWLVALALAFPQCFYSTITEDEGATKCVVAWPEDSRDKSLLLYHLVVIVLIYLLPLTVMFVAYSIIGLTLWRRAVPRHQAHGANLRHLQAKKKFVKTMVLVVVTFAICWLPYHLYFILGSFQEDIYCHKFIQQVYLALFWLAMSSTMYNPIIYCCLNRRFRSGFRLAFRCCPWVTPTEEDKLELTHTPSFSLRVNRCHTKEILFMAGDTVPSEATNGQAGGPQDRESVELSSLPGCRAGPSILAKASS

Substance-P receptor, sequence (P14600 whole entry): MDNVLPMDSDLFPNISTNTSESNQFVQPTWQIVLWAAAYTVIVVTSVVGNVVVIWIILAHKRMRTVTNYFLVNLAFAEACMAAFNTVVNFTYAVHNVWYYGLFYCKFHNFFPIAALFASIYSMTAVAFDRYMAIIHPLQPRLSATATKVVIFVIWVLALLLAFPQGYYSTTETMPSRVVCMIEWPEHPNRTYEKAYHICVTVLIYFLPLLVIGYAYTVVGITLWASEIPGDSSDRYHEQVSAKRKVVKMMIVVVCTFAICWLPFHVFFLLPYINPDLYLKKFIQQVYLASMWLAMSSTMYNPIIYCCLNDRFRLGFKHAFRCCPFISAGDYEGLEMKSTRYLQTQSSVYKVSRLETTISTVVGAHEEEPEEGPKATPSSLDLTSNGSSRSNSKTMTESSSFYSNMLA

CC(=O)N(C)C1(c2ccccc2)CCN(CCCC2(c3ccc(Cl)c(Cl)c3)CCCN(C(=O)c3ccccc3)C2)CC1 (centres undefined) [SR 142806]
Ki (Substance-K receptor [1]): 0.1 µM and 0.248 µM | Ki (Substance-P receptor): 2 µM | Ki (Substance-K receptor [2]): 2 µM | Ki (Substance-K receptor [3]): 0.073 µM and 0.35 µM
